ChEMBL document CHEMBL1759904, “Synthesis and application of a bromomethyl substituted scaffold to be used for efficient optimization of anti-virulence activity” (Eur J Med Chem, 2011)
Calls of active or inactive are those of the source. The rule behind the calls is not given here.

Columns and labels:
Escherichia coli [1] = assay: Antibacterial activity against Escherichia coli UTI89 assessed as inhibition of biofilm formation after 24 hrs; type: functional, organism-based; conditions: UTI89, 24 h
Escherichia coli [2] = assay: Antibacterial activity against Escherichia coli UTI89 assessed as inhibition of biofilm formation at 200 uM after 24 hrs; type: functional; conditions: for inhibition at 200 µM: UTI89, 24 h
Escherichia coli [3] = assay: Antibacterial activity against Escherichia coli UTI89 assessed as number of wells with agglutination by hemagglutinination assay in presence of 500 uM pilicide; type: functional
HeLa = assay: Cytotoxicity against human HeLa cells after 24 hrs by calcein AM based spectrophotometric analysis; type: cell-based

EC50 (Escherichia coli [1])	Structure (SMILES)	inhibition at 200 µM (Escherichia coli [2])	Activity (Escherichia coli [3])	Activity (HeLa)	inhibition (Escherichia coli [2])
30 µM	O=C(O)[C@@H]1CSc2c(-c3cccc(C(F)(F)F)c3)c(Cc3ccc4[nH]ccc4c3)cc(=O)n21	97%	5	Non-toxic	
130 µM	O=C(NCc1cc(=O)n2c(c1-c1cccc(C(F)(F)F)c1)SC[C@H]2C(=O)O)c1cccc2ccccc12	65%			
32 µM	O=C(O)[C@@H]1CSc2c(C3CC3)c(COc3cccc4ccccc34)cc(=O)n21	96%	5.5	Non-toxic	
	O=C(O)[C@@H]1CSc2c(-c3cccc(C(F)(F)F)c3)c(CN3CCOCC3)cc(=O)n21				inactive
3 µM	O=C(O)[C@@H]1CSc2c(-c3cccc(C(F)(F)F)c3)c(Cc3cccc(OCc4ccc(F)cc4)c3)cc(=O)n21	75%		Non-toxic	
	O=C(O)[C@@H]1CSc2c(C3CC3)c(CN3CCCCC3)cc(=O)n21				inactive
	O=C(O)[C@@H]1CSc2c(-c3cccc(C(F)(F)F)c3)c(CNS(=O)(=O)c3ccccc3)cc(=O)n21	48%			
	O=C(O)[C@@H]1CSc2c(-c3cccc(C(F)(F)F)c3)c(CN3CCCCC3)cc(=O)n21	30%			
	O=C(O)[C@@H]1CSc2c(C3CC3)c(CN3CCc4ccccc4C3)cc(=O)n21				inactive
	O=C(O)[C@@H]1CSc2c(C3CC3)c(COc3ccccc3)cc(=O)n21	43%			
	O=C(O)[C@@H]1CSc2c(C3CC3)c(CNS(=O)(=O)c3ccccc3)cc(=O)n21				inactive
38 µM	O=C(O)[C@@H]1CSc2c(-c3cccc(C(F)(F)F)c3)c(CNS(=O)(=O)c3cccc4ccccc34)cc(=O)n21	91%		Non-toxic	
	O=C(NCc1cc(=O)n2c(c1C1CC1)SC[C@H]2C(=O)O)c1cccc2ccccc12				inactive
37 µM	O=C(O)[C@@H]1CSc2c(-c3cccc(C(F)(F)F)c3)c(COc3cccc4ccccc34)cc(=O)n21	72%	5	Non-toxic	
	O=C(O)[C@@H]1CSc2c(C3CC3)c(Cc3ccc4[nH]ccc4c3)cc(=O)n21	37%			
	O=C(O)[C@@H]1CSc2c(C3CC3)c(CNS(=O)(=O)c3cccc4ccccc34)cc(=O)n21				inactive
	O=C(NCc1cc(=O)n2c(c1-c1cccc(C(F)(F)F)c1)SC[C@H]2C(=O)O)c1ccccc1				inactive
	COc1ccc2cc(Cc3cc(=O)n4c(c3C3CC3)SC[C@H]4C(=O)O)ccc2c1				inactive
130 µM	O=C(O)[C@@H]1CSc2c(-c3cccc(C(F)(F)F)c3)c(CN3CCc4ccccc4C3)cc(=O)n21	84%			
9 µM	COc1ccc2cc(Cc3cc(=O)n4c(c3-c3cccc(C(F)(F)F)c3)SC[C@H]4C(=O)O)ccc2c1	93%	5.5	Non-toxic	
	O=C(NCc1cc(=O)n2c(c1C1CC1)SC[C@H]2C(=O)O)c1ccccc1				inactive
17 µM	O=C(O)[C@@H]1CSc2c(-c3cccc(C(F)(F)F)c3)c(Cc3cccc4ccccc34)cc(=O)n21	92%	5	Non-toxic	
21 µM	O=C(O)[C@@H]1CSc2c(-c3cccc(C(F)(F)F)c3)c(COc3ccccc3)cc(=O)n21	80%		Non-toxic	
	O=C(O)[C@@H]1CSc2c(C3CC3)c(CN3CCOCC3)cc(=O)n21				inactive
43 µM	O=C(O)[C@@H]1CSc2c(C3CC3)c(Cc3cccc(OCc4ccc(F)cc4)c3)cc(=O)n21	76%		Non-toxic	
189 µM	O=C(O)[C@@H]1CSc2c(C3CC3)c(Cc3cccc4ccccc34)cc(=O)n21	54%	7	Non-toxic	
